Measured values: patent US7700786B2, “Pyrazole derivative, intermediate therefor, processes for producing these, and herbicide containing these as active ingredient” (Sagami Chemical Research Center, priority 2001, dated 2010)

melting point [°C]	Compound
145 to 147	Cc1cc(Oc2c([N+](=O)[O-])cc([N+](=O)[O-])cc2C(F)(F)F)n[nH]1
63 to 65	CNC(=S)n1nc(Oc2ncc(C(F)(F)F)cc2Cl)cc1C
84 to 86	CCc1c(Oc2ncc(C(F)(F)F)cc2Cl)nn(C(=O)NC)c1C
85 to 87	CCc1cc(Oc2ncc(C(F)(F)F)cc2Cl)nn1C(=O)NC
113 to 114	CNC(=O)n1nc(Oc2c(Cl)cc(C(F)(F)F)cc2Cl)cc1C
87 to 88	CNC(=O)n1nc(Oc2c(F)cc(C(F)(F)F)cc2Cl)cc1C
169 to 171	CCNC(=O)n1nc(Oc2c([N+](=O)[O-])cc([N+](=O)[O-])cc2C(F)(F)F)cc1C
117 to 119	CNC(=O)n1nc(Oc2ccc(C(F)(F)F)cc2[N+](=O)[O-])c(C)c1C
113 to 115	CNC(=O)n1nc(Oc2ccc([N+](=O)[O-])cc2C(F)(F)F)c(C)c1C
81 to 82	CCc1c(Oc2ccc(C(F)(F)F)cc2[N+](=O)[O-])nn(C(=O)NC)c1C
96 to 97	CCc1c(Oc2ccc([N+](=O)[O-])cc2C(F)(F)F)nn(C(=O)NC)c1C
141 to 143	Cc1c(Cl)c(Oc2c(Cl)cc(C(F)(F)F)cc2Cl)nn1C(=O)NCCCl
89 to 91	CCc1cc(Oc2ccc(C(F)(F)F)cc2[N+](=O)[O-])nn1C(=O)NC
97 to 100	CCc1cc(Oc2ccc([N+](=O)[O-])cc2C(F)(F)F)nn1C(=O)NC
102 to 104	CNC(=O)n1nc(Oc2ccc(C(F)(F)F)cc2[N+](=O)[O-])cc1C(F)(F)F
114 to 115	CCNC(=S)n1nc(Oc2c(F)cc(C(F)(F)F)cc2Cl)cc1C
87 to 89	Cc1cc(Oc2ccccc2C(F)(F)F)nn1C(=O)Nc1ccccc1
114 to 117	Cc1cc(Oc2ccc([N+](=O)[O-])c(C)c2)n[nH]1 [Compound 1-4, 5-methyl-3-(4-nitro-3-methylphenyloxy)pyrazole]
123 to 124	CCOc1cc(Oc2cc(C)[nH]n2)ccc1[N+](=O)[O-] [Compound 1-6, 3-(3-ethoxy-4-nitrophenyloxy)-5-methylpyrazole]
153 to 155	Cc1cc(Oc2c(Cl)cc(C(F)(F)F)cc2Cl)n[nH]1 [Compound 1-17, 3-(2,6-dichloro-4-trifluoromethylphenyloxy)-5-methylpyrazole]
156 to 158	Cc1[nH]nc(Oc2c(Cl)cc(C(F)(F)F)cc2Cl)c1Cl [Compound 1-18, 4-chloro-3-(2,6-dichloro-4-trifluoromethylphenyloxy)-5-methylpyrazole]
171 to 174	Cc1cc(Oc2c(F)cc(C(F)(F)F)cc2Cl)n[nH]1 [Compound 1-19, 3-(2-chloro-6-fluoro-4-trifluoromethylphenyloxy)-5-methylpyrazole]
120 to 123	Cc1cc(Oc2c(Cl)cc(C(F)(F)F)cc2[N+](=O)[O-])n[nH]1 [Compound 1-21, 3-(2-chloro-6-nitro-4-trifluoromethylphenyloxy)-5-methylpyrazole]
91 to 93	Cc1cc(Oc2ccc([N+](=O)[O-])c(Cl)c2)n[nH]1 [Compound 1-23, 3-(3-chloro-4-nitrophenyloxy)-5-methylpyrazole]
80 to 83	Cc1cc(Oc2ccc([N+](=O)[O-])c(F)c2)n[nH]1 [Compound 1-26, 3-(3-fluoro-4-nitrophenyloxy)-5-methylpyrazole]
81 to 84	Cc1cc(Oc2ccc(F)cc2[N+](=O)[O-])n[nH]1 [Compound 1-29, 3-(4-fluoro-2-nitrophenyloxy)-5-methylpyrazole]
123 to 125	Cc1cc(Oc2ccc(C#N)cc2C(F)(F)F)n[nH]1 [Compound 1-30, 3-(4-cyano-2-trifluoromethylphenyloxy)-5-methylpyrazole]

melting point [°C]	Compound
143 to 145	Cc1cc(Oc2ccc(N)cc2C(F)(F)F)n[nH]1 [Compound 1-37, 3-(4-amino-2-trifluoromethylphenyloxy)-5-methylpyrazole]
96 to 98	Cc1cc(Oc2ccc([N+](=O)[O-])c(C(F)(F)F)c2)n[nH]1 [Compound 1-42, 5-methyl-3-(4-nitro-3-trifluoromethylphenyloxy)pyrazole]
89 to 91	Cc1cc(Oc2ccc(C(F)(F)F)cc2[N+](=O)[O-])n[nH]1 [Compound 1-44, 5-methyl-3-(2-nitro-4-trifluoromethylphenyloxy)pyrazole]
124 to 125	Cc1cc(Oc2ccc([N+](=O)[O-])cc2)n[nH]1 [Compound 1-47, 5-methyl-3-(4-nitrophenyloxy)pyrazole]
93 to 95	Cc1cc(Oc2ncc(C(F)(F)F)cc2Cl)n[nH]1 [Compound 2-5, 3-(3-chloro-5-trifluoromethylpyridin-2-yloxy)-5-methylpyrazole]
102 to 104	Cc1cc(Oc2ncc(C(F)(F)F)cc2Cl)nn1C(=O)N(C)C [Compound 4-10, N,N-Dimethyl-3-(3-chloro-5-trifluoromethylpyridin-2-yloxy)-5-methylpyrazole-1-carboxamide]
74 to 76	CCNC(=O)n1nc(Oc2ncc(Cl)cc2Cl)cc1C [Compound 4-15, N-ethyl-3-(3,5-dichloropyridin-2-yloxy)-5-methylpyrazole-1-carboxamide]
58 to 60	Cc1cc(Oc2ncc(C(F)(F)F)cc2Cl)nn1C(=O)N(C(C)C)C(C)C [Compound 4-27, N,N-diisopropyl-3-(3-chloro-5-trifluoromethylpyridin-2-yloxy)-5-methylpyrazole-1-carboxamide]
90 to 92	C=CNC(=S)n1nc(Oc2ncc(C(F)(F)F)cc2Cl)cc1C [Compound 4-41, N-vinyl-3-(3-chloro-5-trifluoromethylpyridin-2-yloxy)-5-methylpyrazole-1-carbothioamide]
111 to 112	CCNC(=O)n1nc(Oc2ncc(C(F)(F)F)cc2Cl)c(Cl)c1C [Compound 4-67, N-ethyl-4-chloro-3-(3-chloro-5-trifluoromethylpyridin-2-yloxy)-5-methylpyrazole-1-carboxamide]
123 to 125	CCNC(=O)n1nc(Oc2ncc(C(F)(F)F)cc2Cl)c(Br)c1C [Compound 4-78, N-ethyl-4-bromo-3-(3-chloro-5-trifluoromethylpyridin-2-yloxy)-5-methylpyrazole-1-carboxamide]
78 to 80	Cc1c(Oc2ncc(C(F)(F)F)cc2Cl)nn(C(=O)NC(C)C)c1C [Compound 4-82, N-isopropyl-3-(3-chloro-5-trifluoromethylpyridin-2-yloxy)-4,5-dimethylpyrazole-1-carboxamide]
101 to 102	CCNC(=O)n1nc(Oc2ncc(C(F)(F)F)cc2Cl)c(CC)c1C [Compound 4-85, N-ethyl-3-(3-chloro-5-trifluoromethylpyridin-2-yloxy)-4-ethyl-5-methylpyrazole-1-carboxamide]
85 to 86	CCNC(=O)n1nc(Oc2ncc(C(F)(F)F)cc2Cl)cc1CC [Compound 4-88, N-ethyl-3-(3-chloro-5-trifluoromethylpyridin-2-yloxy)-5-ethylpyrazole-1-carboxamide]
88 to 89	CCc1c(Cl)c(Oc2ncc(C(F)(F)F)cc2Cl)nn1C(=O)NC [Compound 4-89, N-methyl-4-chloro-3-(3-chloro-5-trifluoromethylpyridin-2-yloxy)-5-ethylpyrazole-1-carboxamide]
61 to 63	CNC(=O)n1nc(Oc2ncc(C(F)(F)F)cc2Cl)cc1C(F)(F)F [Compound 4-91, N-methyl-3-(3-chloro-5-trifluoromethylpyridin-2-yloxy)-5-trifluoromethylpyrazole-1-carboxamide]
52 to 54	CCNC(=O)n1nc(Oc2ncc(C(F)(F)F)cc2Cl)cc1C(F)(F)F [Compound 4-93, N-ethyl-3-(3-chloro-5-trifluoromethylpyridin-2-yloxy)-5-trifluoromethylpyrazole-1-carboxamide]
105 to 107	CCNC(=O)n1nc(Oc2ccc([N+](=O)[O-])cc2)cc1C [Example 54, N-ethyl-5-methyl-3-(4-nitrophenyloxy)pyrazole-1-carboxamide]
81 to 84	CCNC(=O)n1nc(Oc2ccc(F)cc2[N+](=O)[O-])cc1C [Example 85, N-ethyl-3-(4-fluoro-2-nitrophenyloxy)-5-methylpyrazole-1-carboxamide]
104 to 106	Cc1cc(Oc2ccc(C(F)(F)F)cc2[N+](=O)[O-])nn1C(=O)NC(C)(C)C [Example 86, N-tert-butyl-5-methyl-3-(2-nitro-4-trifluoromethylphenyloxy)-pyrazole-1-carboxamide]
103 to 105	CCNC(=O)n1nc(Oc2ccc(C#N)cc2C(F)(F)F)cc1C [Example 95, N-ethyl-3-(4-cyano-2-trifluoromethylphenyloxy)-5-methylpyrazole-1-carboxamide]
67 to 69	CCNC(=O)n1nc(Oc2ccc([N+](=O)[O-])c(C)c2)cc1C [Example 96, N-ethyl-5-methyl-3-(3-methyl-4-nitrophenyloxy)pyrazole-1-carboxamide]
110 to 112	CCNC(=O)n1nc(Oc2ccc([N+](=O)[O-])c(OCC)c2)cc1C [Example 98, N-ethyl-3-(3-ethoxy-4-nitrophenyloxy)-5-methylpyrazole-1-carboxamide]
73 to 75	CCNC(=O)n1nc(Oc2cc(OCC)ccc2[N+](=O)[O-])cc1C [Example 99, N-ethyl-3-(5-ethoxy-2-nitrophenyloxy)-5-methylpyrazole-1-carboxamide]
102 to 104	CCNC(=O)n1nc(Oc2ccc(N)c(C(F)(F)F)c2)cc1C [Example 100, N-ethyl-3-(4-amino-3-trifluoromethylphenyloxy)-5-methylpyrazole-1-carboxamide]
102 to 104	CCNC(=O)n1nc(Oc2c(F)cc(C(F)(F)F)cc2F)cc1C [Example 124, N-ethyl-3-(2,6-difluoro-4-trifluoromethylphenyloxy)-5-methylpyrazole-1-carboxamide]
